Experimental data from patent publication US10945989B2, “Perinatal treatment with a flavonoid agonist of the TrkB receptor for BDNF rescues neurogenesis and behavior in the Ts65Dn mouse model of DS” (ALMA MATER STUDIORUM—Universita' di Bologna, priority 2017, dated 2021).

Columns and labels:
[1] = test system: proliferating cells in the SVZ; experiment: Prenatal treatment: BrdU-positive cells in the SVZ of P2 mice; format: in vivo, mouse
Method: Conception was determined by examining the vaginal plug. […] After sacrifice, brain was excised and weighed.
One of 20 sections (n=8-10) from the beginning to the end of the hippocampal formation were subjected to double-fluorescence immunohistochemistry for BrdU and NeuN. Sections were incubated overnight at 4° C. with a primary antibody, rat monoclonal anti-BrdU antibody (AbD Serotec), diluted 1:100 in 0.1% Triton X-100 in PBS and either mouse monoclonal anti-NeuN (Millipore Bioscience Research Reagents) diluted 1:400 in 0.1% Triton X-100 in PBS. Sections were then washed in 0.1% Triton X-100 in PBS for 40 min and incubated for 2 h with a Cy3-conjugated anti-rat IgG (1:200; Jackson Immunoresearch) secondary fluorescent antibody for BrdU immunohistochemistry and FITC-conjugated anti-mouse IgG (1:200; Jackson Immunoresearch) for NeuN immunohistochemistry.
BrdU-positive cells were sampled in the caudal subventricular zone (SVZ) of the lateral ventricle overlying the dentate gyrus and from the subgranular zone (SGZ) of the dentate gyrus (FIG. 10A). The caudal SVZ is the region that stretches from the beginning to the end of the hippocampal formation (BC: 3.27-4.84 mm). Since different regions of the ventricular zone (VZ) and SVZ give origin to neurons destined to different telecephalic areas (Brazel et al., 2003), we evaluated the effects of treatment both in the dorsal and lateral part of the SVZ (FIG. 10B). For cell counting, an area was traced enclosing the whole SVZ and all cells in this area were counted. While at later life stages, neural progenitor cells are only present in the SGZ of the dentate gyrus, in P2 pups proliferating cells can be detected in the perspective molecular layer and hilus. Therefore, cells were counted within a manually-traced area enclosing the whole dentate gyrus (FIG. 10B). […] Quantification of BrdU-labeled nuclei was conducted in every 20th section. The total number of BrdU labeled cells in the SVZ and SGZ was estimated by multiplying the number counted in the sampled sections by the inverse of the section sampling fraction (ssf= 1/20).

Ts65Dn and euploid mice = experiment: Morris Water Maze, probe test; format: in vivo, mouse
[2] = test system: neural precursor cells of the DG; experiment: BrdU-positive cells in the dentate gyrus of P15 mice; format: in vivo, mouse; conditions: for number of BrdU-positive cells in the DG: Ts65Dn pups
Method: In a pilot study we tested the effects of different doses of 7,8-DHF on the proliferation rate in the SGZ of Ts65Dn mice. Mice received a daily subcutaneous injection of 7,8-DHF (2.5, 5.0, or 10.0 mg/kg in PBS with 1-2% DMSO) from postnatal day 3 (P3) to P15. […] Therefore, this study (Experiment 1 and Experiment 2) was carried out using a 5.0 mg/kg dose.
Euploid and Ts65Dn mice received a daily subcutaneous injection (at 9-10 am) of 7,8-DHF (5.0 mg/kg in vehicle: PBS with 1% DMSO) or vehicle from postnatal day 3 (P3) to postnatal day 15. This timing was chosen because it corresponds to that previously used to test the effects of fluoxetine and other pharmacotherapies in the neonate Ts65Dn mouse (Bianchi et al., 2010b; Giacomini et al., 2015; Stagni et al., 2016). Mice that received 7,8-DHF will be called “treated mice” (treated euploid mice: n=25; treated Ts65Dn mice: n=15). Mice that received the vehicle will be called “untreated mice” (untreated euploid mice: n=35; untreated Ts65Dn mice: n=21). […] The brains were excised and cut along the midline. The left hemisphere of a group of mice was fixed by immersion in PFA 4% and frozen, and the left hemisphere of another group of mice was used for Golgi staining. The right hemispheres of all mice was kept at −80° C. and used for western blotting.
One out of six free-floating sections (n=15-18 sections) from the hippocampal formation of P15 mice was incubated with rat anti-BrdU antibody.
BrdU-positive cells in the DG of P15 mice were detected using a fluorescence microscope (Eclipse; objective: ×40, 0.75 NA; final magnification: ×400). Quantification of BrdU-labeled nuclei was conducted in every 6th section using a modified unbiased stereology protocol that has previously been reported as successfully quantifying BrdU labeling (Malberg et al., 2000; Kempermann and Gage, 2002; Tozuka et al., 2005). All BrdU labeled cells located in the granule cell and subgranular layers were counted in their entire z axis (1 μm steps) in each section. To avoid oversampling errors, nuclei intersecting the uppermost focal plane were excluded. The total number of BrdU labeled cells per animal was determined and multiplied by six to obtain the total estimated number of cells per DG.

TrkB receptor = TrkB receptor (Homo sapiens, UniProt Q16620); conditions: Liu et al., 2010 and 2013; cited from earlier work
[3] = Ts65Dn mice, became similar to untreated euploid mice

Chain of TrkB receptor (Q16620 32-822): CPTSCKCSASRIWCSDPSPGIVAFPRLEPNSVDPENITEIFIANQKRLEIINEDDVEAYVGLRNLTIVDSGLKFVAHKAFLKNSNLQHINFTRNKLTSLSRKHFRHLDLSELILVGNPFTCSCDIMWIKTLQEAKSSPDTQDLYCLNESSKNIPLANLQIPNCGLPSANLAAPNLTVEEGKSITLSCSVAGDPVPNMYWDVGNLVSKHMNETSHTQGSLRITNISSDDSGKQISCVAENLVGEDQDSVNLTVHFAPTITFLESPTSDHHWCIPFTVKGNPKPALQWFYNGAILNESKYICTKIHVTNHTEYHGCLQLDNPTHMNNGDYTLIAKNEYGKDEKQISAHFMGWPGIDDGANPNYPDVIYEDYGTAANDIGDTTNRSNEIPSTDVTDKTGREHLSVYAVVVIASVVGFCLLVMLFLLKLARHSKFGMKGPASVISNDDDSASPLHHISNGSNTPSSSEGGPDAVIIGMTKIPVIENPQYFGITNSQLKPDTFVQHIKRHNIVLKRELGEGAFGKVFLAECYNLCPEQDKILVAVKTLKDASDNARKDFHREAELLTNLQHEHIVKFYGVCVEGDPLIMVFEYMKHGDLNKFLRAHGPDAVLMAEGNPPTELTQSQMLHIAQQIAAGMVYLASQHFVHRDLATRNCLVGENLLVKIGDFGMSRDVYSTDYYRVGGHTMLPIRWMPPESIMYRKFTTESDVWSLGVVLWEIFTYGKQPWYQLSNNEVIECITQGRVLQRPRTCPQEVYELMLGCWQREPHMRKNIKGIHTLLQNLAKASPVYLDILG

SMILES: O=c1cc(-c2ccccc2)oc2c(O)c(O)ccc12 [7,8-DHF, 7,8-dihydroxyflavone]
- total number of BrdU-positive cells in the SVZ, treated Ts65Dn vs untreated euploid mice ([1]; P2, treated E10-E20/21): no differences in total number of BrdU-positive cells
- total number of BrdU-positive cells in the SVZ ([1]; P2 Ts65Dn mice, dams 5 mg/kg s.c. E10-E20/21, untreated Ts65Dn approx. 22500, euploid approx. 32300): approximately 33900
- increase in cell number in the SVZ vs untreated Ts65Dn ([1]; P2 Ts65Dn mice, treated E10-E20/21): +50%
- percentage of time spent at the periphery (probe test) (Ts65Dn and euploid mice; Ts65Dn mice): reduced in comparison with their untreated counterparts
- frequency of entrances in the former quadrant (Ts65Dn and euploid mice; [3]): notable increase in the frequency
- latency to enter the former platform zone (Ts65Dn and euploid mice; [3]): notable reduction in their latency
- proximity to the former platform position (Ts65Dn and euploid mice; [3]): swam closer to the former platform zone
- percentage of time spent in quadrants (Ts65Dn and euploid mice; Ts65Dn mice, vs SE quadrant only marginally significant): significantly more time in the former platform quadrant in comparison with the NE quadrant
- frequency of entrances in the former quadrant (Ts65Dn and euploid mice; euploid mice): large increase in the frequency of entrances
- percentage of time spent at the periphery (probe test) (Ts65Dn and euploid mice; euploid mice, treated vs. untreated): reduction in the percentage of time at the periphery
- percentage of time spent in quadrants (Ts65Dn and euploid mice; euploid mice, vs NE and SE quadrants): significantly more time in the former platform quadrant
- number of BrdU-positive cells in the DG ([2]; 2.5 mg/kg P3-P15, vs vehicle): no effect
- number of BrdU-positive cells in the DG ([2]; 5.0 mg/kg P3-P15, vs vehicle): increased the number of BrdU-positive cells
- number of BrdU-positive cells in the DG ([2]; 10.0 mg/kg P3-P15, vs vehicle): increased the number of BrdU-positive cells
- number of NPCs (BrdU-positive cells) in the DG ([2]; euploid mice, 5.0 mg/kg P3-P15): no effect on the number of NPCs
- optimum dose for proliferation rate in the SGZ ([2]; pilot study, Ts65Dn mice, 2.5, 5.0 or 10.0 mg/kg s.c. P3-P15): 5.0 mg/kg
- total number of BrdU-positive (proliferating) cells per DG ([2]; treated Ts65Dn mice, 5.0 mg/kg P3-P15, mean±SE, untreated Ts65Dn 7166±337, untreated euploid 10,281±111): 8963±449
- binding to the TrkB receptor (TrkB receptor): high affinity and specificity
